The target of this experiment is T1, β-secretase (BACE) (Homo sapiens, UniProt P56817).
T1 construct: purchased Panvera
The experiment in a line: BACE FS1 % Inhibition Assay. The experiment is classed as biochemical. An outline of the steps:
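Percent inhibition per compound concentration was referenced to vehicle-treated enzyme and no-enzyme wells. Enzyme at a 4 μg/mL working stock plus compound was mixed for 20 min at room temperature before the FS1 substrate (300 μg/mL working stock) was added for a 1 h room-temperature reaction.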

T1 sequence (P56817 46-501): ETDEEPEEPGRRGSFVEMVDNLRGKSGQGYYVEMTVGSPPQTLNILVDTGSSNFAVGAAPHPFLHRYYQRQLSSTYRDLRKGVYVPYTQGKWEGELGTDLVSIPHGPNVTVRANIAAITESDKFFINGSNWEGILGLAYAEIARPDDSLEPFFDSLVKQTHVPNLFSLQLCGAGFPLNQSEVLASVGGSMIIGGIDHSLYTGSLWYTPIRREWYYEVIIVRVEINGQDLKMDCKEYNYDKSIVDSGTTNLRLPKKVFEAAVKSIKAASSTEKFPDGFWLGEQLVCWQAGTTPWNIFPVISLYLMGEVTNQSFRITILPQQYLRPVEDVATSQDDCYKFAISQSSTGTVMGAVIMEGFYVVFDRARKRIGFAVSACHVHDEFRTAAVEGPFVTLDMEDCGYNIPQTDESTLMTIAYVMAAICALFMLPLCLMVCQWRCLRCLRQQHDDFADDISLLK

On to `COc1ccccc1-c1ccc2c(c1)CN([C@@H](CCC(=O)N(C)Cc1cc(-c3ccccc3)on1)C1CCCCC1)C(N)=N2` [Compound 719], for which the “% Inhibition (FS)” value is given as 31% (0.3 μM compound, FS1 substrate); less than 30% (1 μM compound, FS1 substrate); 81% (3 μM compound, FS1 substrate).

As to `CC(C)N(C(=O)CCN1Cc2cc(Oc3ccccc3)ccc2N=C1N)C(C)C` [Compound 181], the “% Inhibition (FS)” value is, setting by setting: (0.3 μM test compound) less than 30%; (1 μM test compound) less than 30%; (3 μM test compound) 32%.

Turning to `CCCCCCCCC(CCC(=O)N(C)C1CCCCC1)N1Cc2cc(Oc3ccccc3)ccc2N=C1N` (stereo not drawn) [Compound 210], the “% Inhibition (FS)” value (0.3 μM test compound) is given as less than 30%, the “% Inhibition (FS)” value (1 μM test compound) is reported as less than 30% and the “% Inhibition (FS)” value (3 μM test compound) is less than 30%.

For `CN(C(=O)c1cccc(CN2Cc3cc(Oc4ccccc4-c4nc5ccccc5s4)ccc3N=C2N)c1)C1CCCCC1` [Compound 470], the “% Inhibition (FS)” value by setting is: (0.3 μM test compound) less than 30%; (1 μM test compound) less than 30%; (3 μM test compound) 31%.

On to `CCc1ccccc1Sc1ccc2c(c1)CN(Cc1cccc(C(=O)N(C)C3CCCCC3)c1)C(N)=N2` [Compound 406], for which the “% Inhibition (FS)” value by setting is: (0.3 μM test compound) less than 30%; (1 μM test compound) less than 30%; (3 μM test compound) 50%.

`NC1=Nc2ccc(Oc3ccccc3)cc2CN1C1CCN(C(=O)C2CCCC2)C1` (stereo not drawn) [Compound 120]: the “% Inhibition (FS)” value runs as follows: (3 μM test compound) less than 30%; (10 μM test compound) 34%.

Regarding `NC1=Nc2ccc(-c3ccccc3F)cc2CN1CCNC(=O)CCC(F)(F)F` [Compound 680], the “% Inhibition (FS)” value by setting is: (0.3 μM compound, FS1 substrate) 42%; (1 μM compound, FS1 substrate) 75%; (3 μM compound, FS1 substrate) 90%.

As for `NC1=Nc2ccc(Oc3ccccc3)cc2CN1CCNC(=O)CCc1ccccc1` [Compound 155], the “% Inhibition (FS)” value was less than 30% (3 μM test compound) and 49% (10 μM test compound).

Turning to `CN(C(=O)c1cccc(CN2Cc3cc(Oc4ccccc4C(=O)N4CCCC4)ccc3N=C2N)c1)C1CCCCC1` [Compound 483], the “% Inhibition (FS)” value (0.3 μM test compound) was less than 30%, the “% Inhibition (FS)” value (1 μM test compound) is recorded as less than 30% and the “% Inhibition (FS)” value (3 μM test compound) is on record as less than 30%.

`CN1CCC(N(C)C(=O)c2cccc(CN3Cc4cc(Oc5ccccc5)ccc4N=C3N)c2)CC1` [Compound 223]: the “% Inhibition (FS)” value (0.3 μM test compound) was less than 30%, the “% Inhibition (FS)” value (1 μM test compound) is on record as less than 30% and the “% Inhibition (FS)” value (3 μM test compound) is on record as less than 30%.

Turning to `Cc1cccc(Nc2ccc3c(c2)CN(Cc2cccc(C(=O)N(C)C4CCCCC4)c2)C(N)=N3)c1` [Compound 435], the “% Inhibition (FS)” value is on record as less than 30% (0.3 μM test compound), less than 30% (1 μM test compound) and 85% (3 μM test compound).

In the case of `COC1CCCC(C(=O)NCCN2Cc3cc(-c4ccccc4C)ccc3N=C2N)C1` (stereo not drawn) [Compound 696], the “% Inhibition (FS)” value reads like this: (0.3 μM compound, FS1 substrate) less than 30%; (1 μM compound, FS1 substrate) 72%.

For the compound `CC(CC(=O)NCCN1Cc2cc(-c3ccccc3)ccc2N=C1N)C(F)(F)F` (stereo not drawn) [Compound 685], the “% Inhibition (FS)” value came out at 50% (0.3 μM compound, FS1 substrate) and 90% (1 μM compound, FS1 substrate).

As for `Cc1cc(C)cc(Oc2ccc3c(c2)CN(Cc2cccc(C(=O)N(C)C4CCCCC4)c2)C(N)=N3)c1` [Compound 228], the “% Inhibition (FS)” value runs as follows: (0.3 μM test compound) less than 30%; (1 μM test compound) 49%; (3 μM test compound) 40%.

For the compound `CCCC(CNC(=O)C12CC3CC(CC(C3)C1)C2)N1Cc2cc(Oc3ccccc3)ccc2N=C1N` (stereo not drawn) [Compound 602], the “% Inhibition (FS)” value came to 78% (0.3 μM test compound, 0.3 µM); 113% (1 μM test compound, 1 µM); 121% (3 μM test compound, 3 µM).

Take `CN(CCc1ccccc1)C(=O)CC[C@@H](C1CCCCC1)N1Cc2cc(-c3ccccc3F)ccc2N=C1N` [Compound 727]: the “% Inhibition (FS)” value (0.3 μM compound, FS1 substrate) is 46% and the “% Inhibition (FS)” value (1 μM compound, FS1 substrate) is recorded as 80%.

Take `CSc1ccc(Nc2ccc3c(c2)CN(Cc2cccc(C(=O)N(C)C4CCCCC4)c2)C(N)=N3)cc1` [Compound 442]: the “% Inhibition (FS)” value runs as follows: (0.3 μM test compound) less than 30%; (1 μM test compound) 58%; (3 μM test compound) 101%.

Consider `NC1=Nc2ccc(Oc3ccccc3)cc2CN1CCNCC1CCCCC1` [Compound 427], for which the “% Inhibition (FS)” value is on record as less than 30% (0.3 μM test compound), 26% (1 μM test compound) and 62% (3 μM test compound).

In the case of `NC1=Nc2ccc(Oc3ccccc3)cc2CN1C(CNC(=O)CC1CCCC1)C1CCCCC1` (stereo not drawn) [Compound 311], the “% Inhibition (FS)” value runs as follows: (0.3 μM test compound) 74%; (1 μM test compound) 108%; (3 μM test compound) 118%.

As to `Cc1ccccc1-c1ccc2c(c1)CN(CCNC(=O)C1CCC1)C(N)=N2` [Compound 656], the “% Inhibition (FS)” value (0.3 μM test compound) came to 56%, the “% Inhibition (FS)” value (1 μM test compound) amounted to 87% and the “% Inhibition (FS)” value (3 μM test compound) amounted to 104%.

As for `Cc1cccc(C)c1Oc1ccc2c(c1)CN(Cc1cccc(C(=O)N(C)C3CCCCC3)c1)C(N)=N2` [Compound 475], the “% Inhibition (FS)” value is listed as less than 30% (0.3 μM test compound), less than 30% (1 μM test compound) and less than 30% (3 μM test compound).

For the compound `NC1=Nc2ccc(-c3ccc(F)cc3)cc2CN1CCNC(=O)C1CCCCC1` [Compound 624], the “% Inhibition (FS)” value (0.3 μM test compound) is less than 30%; the “% Inhibition (FS)” value (1 μM test compound, 1 µM) is listed as 38%; the “% Inhibition (FS)” value (3 μM test compound, 3 µM) was determined as 78%.

Turning to `NC1=Nc2ccc(-c3cccc(C(F)(F)F)c3)cc2CN1CCNC(=O)CC1CCCC1` [Compound 584], the “% Inhibition (FS)” value is less than 30% (0.3 μM test compound), less than 30% (1 μM test compound) and 56% (3 μM test compound).

For the compound `COc1ccccc1Sc1ccc2c(c1)CN(Cc1cccc(C(=O)N(C)C3CCCCC3)c1)C(N)=N2` [Compound 412], the “% Inhibition (FS)” value by setting is: (0.3 μM test compound) less than 30%; (1 μM test compound) less than 30%; (3 μM test compound) 49%.

Take `NC1=Nc2ccc(-c3cncnc3)cc2CN1CCNC(=O)C1CCCCC1` [Compound 575]: the “% Inhibition (FS)” value runs as follows: (0.3 μM test compound) less than 30%; (1 μM test compound) less than 30%; (3 μM test compound) less than 30%.

On to `CC(C)CCC(=O)NC[C@@H](C(C)C)N1Cc2cc(Oc3ccccc3)ccc2N=C1N` [Compound 564], for which the “% Inhibition (FS)” value by setting is: (0.3 μM test compound) 112%; (1 μM test compound) 119%; (3 μM test compound) 129%.

Take `CCCC(=O)NCCN1Cc2cc(-c3ccccc3Cl)ccc2N=C1N` [Compound 652]: the “% Inhibition (FS)” value was 31% (0.3 μM test compound), 63% (1 μM test compound) and 91% (3 μM test compound).

On to `CC(=O)Nc1ccc(C(=O)NCCN2Cc3cc(-c4ccccc4)ccc3N=C2N)cc1` [Compound 591], for which the “% Inhibition (FS)” value is, setting by setting: (0.3 μM test compound) less than 30%; (1 μM test compound) less than 30%; (3 μM test compound) less than 30%.

As for `CCCCCC(CCC(=O)NC1CCCCCC1)N1Cc2cc(Oc3ccccc3)ccc2N=C1N` (stereo not drawn) [Compound 150], the “% Inhibition (FS)” value (0.3 μM test compound) is reported as less than 30%, the “% Inhibition (FS)” value (1 μM test compound) was less than 30% and the “% Inhibition (FS)” value (3 μM test compound) is 90%.

On to `COc1ccccc1-c1ccc2c(c1)CN(CCNC(=O)CCCN)C(N)=N2` [Compound 494], for which the “% Inhibition (FS)” value (0.3 μM test compound) is less than 30%, the “% Inhibition (FS)” value (1 μM test compound) is less than 30% and the “% Inhibition (FS)” value (3 μM test compound) was less than 30%.

Take `CC(C)c1ccccc1Oc1ccc2c(c1)CN(CCC(=O)NC1C3CC4CC(C3)CC1C4)C(N)=N2` (stereo not drawn) [Compound 466]: the “% Inhibition (FS)” value (0.3 μM test compound) is recorded as less than 30%, the “% Inhibition (FS)” value (1 μM test compound) is given as less than 30% and the “% Inhibition (FS)” value (3 μM test compound) came out at 53%.

With `COc1ccccc1-c1ccc2c(c1)CN([C@@H](CCC(=O)N(C)Cc1cnn(-c3ccccc3)c1)C1CCCCC1)C(N)=N2` [Compound 717], the “% Inhibition (FS)” value by setting is: (0.3 μM compound, FS1 substrate) 33%; (1 μM compound, FS1 substrate) 39%; (3 μM compound, FS1 substrate) 72%.

Turning to `CC(=O)c1cccc(-c2ccc3c(c2)CN(CCNC(=O)CC2CCCC2)C(N)=N3)c1` [Compound 582], the “% Inhibition (FS)” value runs as follows: (0.3 μM test compound) less than 30%; (1 μM test compound) less than 30%; (3 μM test compound) less than 30%.

`NC1=Nc2ccc(-c3ccccc3Cl)cc2CN1CCNC(=O)C1CCCC1` [Compound 650]: the “% Inhibition (FS)” value is listed as 72% (0.3 μM test compound), 94% (1 μM test compound) and 112% (3 μM test compound).

For the compound `COc1ccccc1-c1ccc2c(c1)CN(Cc1cccc(C(=O)N(C)C3CCCCC3)c1)C(NC(C)=O)=N2` [Compound 607], the “% Inhibition (FS)” value runs as follows: (0.3 μM test compound) 94%; (1 μM test compound) 116%; (3 μM test compound) 123%.

For the compound `NC1=Nc2ccc(C3=CCCC3)cc2CN1CCNC(=O)C1CCC(C(F)(F)F)CC1` (stereo not drawn) [Compound 707], the “% Inhibition (FS)” value runs as follows: (0.3 μM compound, FS1 substrate) less than 30%; (1 μM compound, FS1 substrate) less than 30%; (3 μM compound, FS1 substrate) less than 30%.

As for `NC1=Nc2ccc(-c3ccccc3F)cc2CN1CCNC(=O)C1CCOCC1` [Compound 687], the “% Inhibition (FS)” value is, setting by setting: (0.3 μM compound, FS1 substrate) less than 30%; (1 μM compound, FS1 substrate) 50%; (3 μM compound, FS1 substrate) 87%.

Take `NC1=Nc2ccc(Oc3ccccc3)cc2CN1C1CCCCN(C(=O)C2CCCCC2)C1` (stereo not drawn) [Compound 551]: the “% Inhibition (FS)” value (0.3 μM test compound) is on record as less than 30%, the “% Inhibition (FS)” value (1 μM test compound) is reported as less than 30% and the “% Inhibition (FS)” value (3 μM test compound) was less than 30%.

Turning to `CCCCCCCCC(CCC(=O)NC1CCCCCC1)N1Cc2cc(Oc3ccccc3)ccc2N=C1N` (stereo not drawn) [Compound 208], the “% Inhibition (FS)” value runs as follows: (0.3 μM test compound) less than 30%; (1 μM test compound) less than 30%; (3 μM test compound) 67%.

With `CCCCC(CC)C(=O)NCC(C1CCCCC1)N1Cc2cc(Oc3ccccc3)ccc2N=C1N` (stereo not drawn) [Compound 303], the “% Inhibition (FS)” value is reported as less than 30% (0.3 μM test compound), 70% (1 μM test compound) and 109% (3 μM test compound).

In the case of `NC1=Nc2ccc(Oc3ccccc3)cc2CN1C1c2ccccc2-c2cccc(C(=O)N(C3CCCCC3)C3CCCCC3)c21` (stereo not drawn) [Compound 124], the “% Inhibition (FS)” value was found to be 56% (3 μM test compound) and 67% (10 μM test compound).
